Several values for one entry are separate records, joined by “and”; a condition that tells them apart may be missing. Identical values can stand only once.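 48-hour exposure; five concentrations; linearly interpolated endpoints. At the TGI there is no net growth.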
What was measured:
Test in all cases: NCI tumour cell line growth inhibition, 48 h
RXF-631 renal = test system: RXF-631 renal
SNB-78 CNS = test system: SNB-78 CNS
HOP-18 NSCLC = test system: HOP-18 NSCLC
XF 498 CNS = test system: XF 498 CNS
P388/ADR leukemia = test system: P388/ADR leukemia
SN12K1 renal = test system: SN12K1 renal
P388 leukemia = test system: P388 leukemia

SMILES | TGI (RXF-631 renal) [µM] | TGI (SNB-78 CNS) | TGI (HOP-18 NSCLC) [µM] | TGI (XF 498 CNS) [µM] | TGI (P388/ADR leukemia) [µM] | TGI (SN12K1 renal) [µM] | TGI (P388 leukemia) [µM]
COC(=O)C1CCCC2(C1)OCCO2 (stereo not drawn) | > 100 | > 100 µM | > 100 |  |  |  | 
On1c(-c2ccccc2)c(-c2ccccc2N2CCCC2)c2ccccc21 |  | > 100 µM | > 100 | > 100 |  |  | 
Cc1c2n(c(=O)[nH]c1=O)C1OC(CO)C(N=[N+]=[N-])C1O2 (stereo not drawn) |  | > 100 µM |  |  |  |  | 
CCCCCCCCCCCCCCCCNc1cccc2ccccc12 |  | > 100 µM |  |  |  |  | 
CCCCCCCCCCCC[S+](C)C |  | 26.6 µM | 14.9 | 6.71 | > 100 | 18.8 | 3.1
COC(=O)C(=Cc1cc(OC)c(OC)c(OC)c1-c1cc2c(cc1C1(C)OCCS1)OCO2)C(=O)OC (stereo not drawn) | > 100 |  |  |  |  |  | 
CCOC(=O)N1CCC(N[C@@H]2c3cc4c(cc3C(c3cc(OC)c(O)c(OC)c3)C3C(=O)OC[C@@H]32)OCO4)CC1 (stereo partly drawn) |  | 50 µM and > 25 µM |  |  |  |  | 
Cc1c2cc[n+](C)c(C)c2cc2c1[nH]c1ccccc12 |  | 72.2 µM | 11.8 |  | > 100 | 16.8 | 86.6
O=C1OCC/C1=N/O |  | > 100 µM | > 100 |  |  |  | 
CC(O)CNC(=O)C(C)Oc1ccc(OCC2CCCCC2)cc1 (stereo not drawn) |  | > 100 µM | > 100 | > 100 |  |  | 
COc1cc(OC)c2c(=O)cc(-c3ccc(OC)c(OC)c3OC)oc2c1 |  |  |  | > 100 |  |  | 
COc1ccc(CCN(C)C2CCC(C#N)(c3ccc(OC)c(OC)c3)CC2)cc1OC (stereo not drawn) | > 100 |  | > 100 | > 100 |  |  | 
CC1=Cc2cccc(C)c2C(=O)C1=O |  | > 100 µM | 2.79 | 9.65 |  |  | 
Cc1ccc(/C=N\NC2c3cc(Cl)ccc3Nc3nc(=O)[nH]c(C)c32)cc1 (stereo not drawn) |  | > 100 µM |  | > 100 |  |  | 
COC(=O)/C(=C/c1ccc(OC)cc1)C(C(=O)O)=C1CCCC1 | > 100 | > 100 µM |  | > 100 |  |  | 
